Measurements as given in paper PMC5218480 (PLoS ONE, 2017).

Test system: MV-4-11 cells
Assay: Gene expression microarray analysis (Affymetrix PrimeView) and GSEA
Format: cell-based, human
Design: RFU PODN (11730768_x_at) / Fold change /veh PODN (11730768_x_at) / RFU LINC00158 (11744669_a_at) / Fold change /veh LINC00158 (11744669_a_at) / RFU DUSP10 (11751237_a_at) / Fold change /veh DUSP10 (11751237_a_at) / RFU ID3 (11757404_x_at) / Fold change /veh ID3 (11757404_x_at) / RFU PLEKHG5 (11737974_s_at) / Fold change /veh PLEKHG5 (11737974_s_at) / RFU LRRC4B (11730491_at) / Fold change /veh LRRC4B (11730491_at) / RFU GIMAP4 (11747438_a_at) / Fold change /veh GIMAP4 (11747438_a_at) / RFU KRT8 (11758183_x_at) / Fold change /veh KRT8 (11758183_x_at) / RFU CNN1 (11734310_a_at) / Fold change /veh CNN1 (11734310_a_at) / RFU VPS37D (11726825_at) / Fold change /veh VPS37D (11726825_at) / RFU C10orf10 (11716522_x_at) / Fold change /veh C10orf10 (11716522_x_at) / RFU KIR2DL2 /// KIR2DL4 /// KIR2DL5A /// KIR2DL5B /// KIR2DS1 /// KIR2DS2 /// KIR2DS3 /// KIR2DS4 /// KIR3DL3 /// KIR3DL3 /// KIR3DS1 (11738374_at) / Fold change /veh KIR2DL2 /// KIR2DL4 /// KIR2DL5A /// KIR2DL5B /// KIR2DS1 /// KIR2DS2 /// KIR2DS3 /// KIR2DS4 /// KIR3DL3 /// KIR3DL3 /// KIR3DS1 (11738374_at) / RFU C1QL1 (11718748_at) / Fold change /veh C1QL1 (11718748_at) / RFU TMPRSS4 (11747572_a_at) / Fold change /veh TMPRSS4 (11747572_a_at) / RFU HAMP (11756126_x_at) / Fold change /veh HAMP (11756126_x_at) / RFU RNFT2 (11725882_a_at) / Fold change /veh RNFT2 (11725882_a_at) / RFU NR4A2 (11747474_a_at) / Fold change /veh NR4A2 (11747474_a_at) / RFU ABCC12 (11746883_a_at) / Fold change /veh ABCC12 (11746883_a_at) / RFU TMEM136 (11760407_x_at) / Fold change /veh TMEM136 (11760407_x_at) / RFU CLDN22 /// WWC2 (11732394_at) / Fold change /veh CLDN22 /// WWC2 (11732394_at) / RFU HLA-DPB1 (11760878_x_at) / Fold change /veh HLA-DPB1 (11760878_x_at) / RFU SPINT1 (11716480_a_at) / Fold change /veh SPINT1 (11716480_a_at) / RFU GAP43 (11754022_s_at) / Fold change /veh GAP43 (11754022_s_at) / RFU A4GNT (11735810_at) / Fold change /veh A4GNT (11735810_at) / RFU PRB3 (11715151_x_at) / Fold change /veh PRB3 (11715151_x_at) / RFU TUBB4B (11761932_at) / Fold change /veh TUBB4B (11761932_at) / RFU CAPN14 (11732068_a_at) / Fold change /veh CAPN14 (11732068_a_at) / RFU TMCC2 (11721928_a_at) / Fold change /veh TMCC2 (11721928_a_at) / RFU IRGQ (11745062_a_at) / Fold change /veh IRGQ (11745062_a_at) / RFU FAM174B (11720279_a_at) / Fold change /veh FAM174B (11720279_a_at) / RFU TMPRSS4 (11748680_a_at) / Fold change /veh TMPRSS4 (11748680_a_at) / RFU FAM212B (11763350_a_at) / Fold change /veh FAM212B (11763350_a_at) / RFU PLEKHG5 (11743358_a_at) / Fold change /veh PLEKHG5 (11743358_a_at) / RFU ZSCAN30 (11745921_a_at) / Fold change /veh ZSCAN30 (11745921_a_at) / RFU CMKLR1 (11741424_a_at) / Fold change /veh CMKLR1 (11741424_a_at) / RFU LOC101060620 /// MAPK8IP1 (11723275_at) / Fold change /veh LOC101060620 /// MAPK8IP1 (11723275_at) / RFU SPTSSB (11747773_x_at) / Fold change /veh SPTSSB (11747773_x_at) / RFU PRSS12 (11739890_at) / Fold change /veh PRSS12 (11739890_at) / RFU BIN1 (11741810_x_at) / Fold change /veh BIN1 (11741810_x_at) / RFU WNT11 (11732464_a_at) / Fold change /veh WNT11 (11732464_a_at) / RFU C10orf10 (11716521_a_at) / Fold change /veh C10orf10 (11716521_a_at) / RFU C5orf56 (11738089_at) / Fold change /veh C5orf56 (11738089_at) / RFU CYB561 (11721691_x_at) / Fold change /veh CYB561 (11721691_x_at) / RFU ANKRD19P (11752326_a_at) / Fold change /veh ANKRD19P (11752326_a_at) / RFU OR2T12 /// OR2T33 /// OR2T8 (11738714_s_at) / Fold change /veh OR2T12 /// OR2T33 /// OR2T8 (11738714_s_at) / RFU VCAN (11748164_a_at) / Fold change /veh VCAN (11748164_a_at) / RFU JSRP1 (11732532_at) / Fold change /veh JSRP1 (11732532_at) / RFU KRTAP10-11 (11738290_x_at) / Fold change /veh KRTAP10-11 (11738290_x_at) / RFU MYO3A (11730013_a_at) / Fold change /veh MYO3A (11730013_a_at) / RFU EBF3 (11725865_a_at) / Fold change /veh EBF3 (11725865_a_at) / RFU CAMK2N1 (11719241_x_at) / Fold change /veh CAMK2N1 (11719241_x_at) / RFU C5orf56 (11738088_a_at) / Fold change /veh C5orf56 (11738088_a_at) / RFU OLFML3 (11715873_a_at) / Fold change /veh OLFML3 (11715873_a_at) / RFU LOC100653217 /// NTM (11731650_a_at) / Fold change /veh LOC100653217 /// NTM (11731650_a_at) / RFU MAPK11 (11762145_a_at) / Fold change /veh MAPK11 (11762145_a_at) / RFU FIZ1 (11724087_x_at) / Fold change /veh FIZ1 (11724087_x_at) / RFU OASL (11726364_x_at) / Fold change /veh OASL (11726364_x_at) / RFU SOX15 (11748057_x_at) / Fold change /veh SOX15 (11748057_x_at) / RFU CD79A (11719716_a_at) / Fold change /veh CD79A (11719716_a_at) / RFU HIST1H1D (11736915_at) / Fold change /veh HIST1H1D (11736915_at) / RFU CASKIN2 (11723855_a_at) / Fold change /veh CASKIN2 (11723855_a_at) / RFU LOC730098 (11760151_x_at) / Fold change /veh LOC730098 (11760151_x_at) / RFU OR4N2 (11742367_at) / Fold change /veh OR4N2 (11742367_at) / RFU PRRT2 (11749266_a_at) / Fold change /veh PRRT2 (11749266_a_at) / RFU SNX32 (11753110_a_at) / Fold change /veh SNX32 (11753110_a_at) / RFU CDHR5 (11726645_a_at) / Fold change /veh CDHR5 (11726645_a_at) / RFU RCAN1 (11760418_a_at) / Fold change /veh RCAN1 (11760418_a_at) / RFU FAM167A (11723789_a_at) / Fold change /veh FAM167A (11723789_a_at) / RFU FAM26E (11764081_at) / Fold change /veh FAM26E (11764081_at) / RFU ISYNA1 (11749810_s_at) / Fold change /veh ISYNA1 (11749810_s_at) / RFU ACY1 (11761880_at) / Fold change /veh ACY1 (11761880_at) / RFU 11764098_at / Fold change /veh 11764098_at / RFU SAMD14 (11745864_x_at) / Fold change /veh SAMD14 (11745864_x_at) / RFU NPB (11741838_a_at) / Fold change /veh NPB (11741838_a_at) / RFU TMPRSS6 (11731388_a_at) / Fold change /veh TMPRSS6 (11731388_a_at) / RFU KRTAP10-2 (11738614_at) / Fold change /veh KRTAP10-2 (11738614_at) / RFU ARHGAP8 /// PRR5-ARHGAP8 (11727945_x_at) / Fold change /veh ARHGAP8 /// PRR5-ARHGAP8 (11727945_x_at) / RFU KRTAP5-7 /// NADSYN1 (11734609_at) / Fold change /veh KRTAP5-7 /// NADSYN1 (11734609_at) / RFU RASL12 (11751679_a_at) / Fold change /veh RASL12 (11751679_a_at) / RFU CDKN2B (11736163_a_at) / Fold change /veh CDKN2B (11736163_a_at) / RFU PRF1 (11729649_at) / Fold change /veh PRF1 (11729649_at) / RFU, ZNF638 /// ZNF638-IT1 / Fold change vs veh, ZNF638 /// ZNF638-IT1 / RFU, PANK3 / Fold change vs veh, PANK3 / RFU, SH3YL1 / Fold change vs veh, SH3YL1 / RFU, ZEB2 / Fold change vs veh, ZEB2 / RFU, NRIP1 / Fold change vs veh, NRIP1 / RFU, PTTG1IP / Fold change vs veh, PTTG1IP / RFU, CAPN2 / Fold change vs veh, CAPN2 / RFU, MED14 / Fold change vs veh, MED14 / RFU, SNORA58 / Fold change vs veh, SNORA58 / RFU, C1orf63 / Fold change vs veh, C1orf63 / RFU, LRRFIP1 / Fold change vs veh, LRRFIP1 / RFU, NDUFAF7 / Fold change vs veh, NDUFAF7 / RFU, SLC12A2 / Fold change vs veh, SLC12A2 / RFU, IBTK / Fold change vs veh, IBTK / RFU, ESF1 / Fold change vs veh, ESF1 / Fold change vs veh, TMEM50B / RFU, TAOK1 / Fold change vs veh, TAOK1 / RFU, ACBD3 / Fold change vs veh, ACBD3 / RFU, TMA16 / Fold change vs veh, TMA16 / RFU, RWDD3 / Fold change vs veh, RWDD3 / RFU, BCAT1 / Fold change vs veh, BCAT1 / RFU, EDEM3 / Fold change vs veh, EDEM3 / RFU, TMEM33 / Fold change vs veh, TMEM33 / RFU, WDR75 / Fold change vs veh, WDR75 / RFU, AHCTF1 / Fold change vs veh, AHCTF1 / RFU, TFRC / Fold change vs veh, TFRC / RFU, ZDHHC17 / Fold change vs veh, ZDHHC17 / RFU, NOM1 / Fold change vs veh, NOM1 / RFU, ARL8B / Fold change vs veh, ARL8B / RFU, ZBTB11 / Fold change vs veh, ZBTB11 / RFU, TAMM41 / Fold change vs veh, TAMM41 / RFU, KIAA1704 /// LOC100996395 / Fold change vs veh, KIAA1704 /// LOC100996395 / RFU, ING1 / Fold change vs veh, ING1 / RFU, TRMT61B / Fold change vs veh, TRMT61B / RFU, FUBP3 / Fold change vs veh, FUBP3 / RFU, TP53 / Fold change vs veh, TP53 / RFU, TNKS2 / Fold change vs veh, TNKS2 / RFU, ZFP14 / Fold change vs veh, ZFP14 / RFU, ACTR2 / Fold change vs veh, ACTR2 / RFU, PPP3R1 / Fold change vs veh, PPP3R1 / RFU, PIK3R1 / Fold change vs veh, PIK3R1 / RFU, HNRNPA1 / Fold change vs veh, HNRNPA1 / RFU, RNF170 / Fold change vs veh, RNF170 / RFU, ZNF28 / Fold change vs veh, ZNF28 / RFU, RNGTT / Fold change vs veh, RNGTT / RFU, OGT / Fold change vs veh, OGT / RFU, BRD1 / Fold change vs veh, BRD1 / RFU, MARS / Fold change vs veh, MARS / RFU, ZNF655 / Fold change vs veh, ZNF655 / RFU, FAHD1 / Fold change vs veh, FAHD1 / RFU, BDP1 / Fold change vs veh, BDP1 / RFU, LRRCC1 / Fold change vs veh, LRRCC1 / RFU, ARID1A / Fold change vs veh, ARID1A / RFU, ZNF146 / Fold change vs veh, ZNF146 / RFU, ZNF330 / Fold change vs veh, ZNF330 / RFU, GPN3 / Fold change vs veh, GPN3 / RFU, C9orf123 / Fold change vs veh, C9orf123 / RFU, N4BP2L2 / Fold change vs veh, N4BP2L2 / RFU, ARFIP1 / Fold change vs veh, ARFIP1 / RFU, FAM179B / Fold change vs veh, FAM179B / RFU, BCL10 / Fold change vs veh, BCL10 / RFU, UHRF1BP1L / Fold change vs veh, UHRF1BP1L / RFU, BET1 / Fold change vs veh, BET1 / RFU, CNOT2 / Fold change vs veh, CNOT2 / RFU, ZNF268 / Fold change vs veh, ZNF268 / Fold change vs veh, ZNF507 / RFU, DGCR2 / Fold change vs veh, DGCR2 / RFU, WDSUB1 / Fold change vs veh, WDSUB1 / Fold change vs veh, HSP90B1 /// MIR3652 / RFU, ADSS / Fold change vs veh, ADSS / RFU, GK / Fold change vs veh, GK / RFU, ZNF148 / Fold change vs veh, ZNF148 / RFU, TAF9 / Fold change vs veh, TAF9 / RFU, SLC1A5 / Fold change vs veh, SLC1A5 / RFU, SLMO2 / Fold change vs veh, SLMO2 / RFU, ABCC4 / Fold change vs veh, ABCC4 / RFU, LOC101060439 /// RAP1B / Fold change vs veh, LOC101060439 /// RAP1B / RFU, RFX7 / Fold change vs veh, RFX7 / RFU, GTPBP10 / Fold change vs veh, GTPBP10 / RFU, CNEP1R1 / Fold change vs veh, CNEP1R1 / RFU, BIVM-ERCC5 /// ERCC5 / Fold change vs veh, BIVM-ERCC5 /// ERCC5 / RFU, ILF3 / Fold change vs veh, ILF3 / RFU 11762660_at / Fold change /veh 11762660_at / RFU VCAN (11757783_s_at) / Fold change /veh VCAN (11757783_s_at) / RFU DDX43 (11728927_at) / Fold change /veh DDX43 (11728927_at) / RFU KRT8 (11758188_x_at) / Fold change /veh KRT8 (11758188_x_at) / RFU NKD1 (11759106_at) / Fold change /veh NKD1 (11759106_at) / RFU SRD5A1 (11742802_a_at) / Fold change /veh SRD5A1 (11742802_a_at) / RFU TPSAB1 /// TPSB2 (11721975_s_at) / Fold change /veh TPSAB1 /// TPSB2 (11721975_s_at) / RFU GSTM3 (11746129_a_at) / Fold change /veh GSTM3 (11746129_a_at) / RFU IL23R (11737362_x_at) / Fold change /veh IL23R (11737362_x_at) / RFU TMEM51 (11727254_a_at) / Fold change /veh TMEM51 (11727254_a_at) / RFU PIWIL2 (11732686_x_at) / Fold change /veh PIWIL2 (11732686_x_at) / RFU ORM1 (11744905_x_at) / Fold change /veh ORM1 (11744905_x_at) / RFU CCDC152 (11743942_at) / Fold change /veh CCDC152 (11743942_at) / RFU ECM1 (11717891_a_at) / Fold change /veh ECM1 (11717891_a_at) / RFU IL23R (11748794_a_at) / Fold change /veh IL23R (11748794_a_at) / RFU TNFAIP8L3 (11732012_x_at) / Fold change /veh TNFAIP8L3 (11732012_x_at) / RFU MBOAT4 (11741988_at) / Fold change /veh MBOAT4 (11741988_at) / RFU 11764193_at / Fold change /veh 11764193_at / RFU TMEM53 (11763286_at) / Fold change /veh TMEM53 (11763286_at) / RFU MAGEB2 (11727129_at) / Fold change /veh MAGEB2 (11727129_at) / RFU TMEM200A (11744735_a_at) / Fold change /veh TMEM200A (11744735_a_at) / RFU CCDC152 (11751479_a_at) / Fold change /veh CCDC152 (11751479_a_at) / RFU FAM211A (11726209_a_at) / Fold change /veh FAM211A (11726209_a_at) / RFU RGS16 (11746705_a_at) / Fold change /veh RGS16 (11746705_a_at) / RFU VCAN (11755009_s_at) / Fold change /veh VCAN (11755009_s_at) / RFU RHOB (11743442_s_at) / Fold change /veh RHOB (11743442_s_at) / RFU RGS16 (11720943_a_at) / Fold change /veh RGS16 (11720943_a_at) / RFU RGS16 (11720944_at) / Fold change /veh RGS16 (11720944_at) / RFU, VPS4B / Fold change vs veh, VPS4B / RFU, CREB1 / Fold change vs veh, CREB1 / RFU, DNAJC13 / Fold change vs veh, DNAJC13 / RFU, GNAQ / Fold change vs veh, GNAQ / RFU, CDK5R1 / Fold change vs veh, CDK5R1 / RFU, ZRANB3 / Fold change vs veh, ZRANB3 / RFU, CUL4A / Fold change vs veh, CUL4A / RFU, CCNY / Fold change vs veh, CCNY / RFU, UFL1 / Fold change vs veh, UFL1 / RFU, COG3 / Fold change vs veh, COG3 / RFU, DIAPH2 / Fold change vs veh, DIAPH2 / RFU, SKA2 / Fold change vs veh, SKA2 / RFU, AFF3 / Fold change vs veh, AFF3 / RFU, LMF1 / Fold change vs veh, LMF1 / RFU, IPO11 / Fold change vs veh, IPO11 / RFU, DFFB / Fold change vs veh, DFFB / RFU, FOXP1 / Fold change vs veh, FOXP1 / RFU, CARD8 / Fold change vs veh, CARD8 / RFU, STRN3 / Fold change vs veh, STRN3 / RFU, ADK / Fold change vs veh, ADK / RFU, RASSF2 / Fold change vs veh, RASSF2 / RFU, WIPF1 / Fold change vs veh, WIPF1 / RFU, LARP1B / Fold change vs veh, LARP1B / RFU, RASA1 / Fold change vs veh, RASA1 / RFU, RB1 / Fold change vs veh, RB1 / RFU, PPFIA1 / Fold change vs veh, PPFIA1 / RFU, MAT2A / Fold change vs veh, MAT2A / RFU, CCT5 / Fold change vs veh, CCT5 / RFU, WDR92 / Fold change vs veh, WDR92 / RFU, CUX1 / Fold change vs veh, CUX1 / RFU, TTC7A / Fold change vs veh, TTC7A / RFU, TMEM135 / Fold change vs veh, TMEM135 / RFU, DEPTOR / Fold change vs veh, DEPTOR / RFU, CPM / Fold change vs veh, CPM / RFU, DNAJB6 / Fold change vs veh, DNAJB6 / RFU, CACNA2D3 / Fold change vs veh, CACNA2D3 / RFU, DTX4 / Fold change vs veh, DTX4 / RFU, TFCP2 / Fold change vs veh, TFCP2 / RFU, GMCL1 /// GMCL1P1 / Fold change vs veh, GMCL1 /// GMCL1P1 / RFU, AEBP2 / Fold change vs veh, AEBP2 / RFU, SNHG1 /// SNORD22 /// SNORD25 /// SNORD26 /// SNORD27 /// SNORD28 /// SNORD29 /// SNORD31 / Fold change vs veh, SNHG1 /// SNORD22 /// SNORD25 /// SNORD26 /// SNORD27 /// SNORD28 /// SNORD29 /// SNORD31 / Fold change (Aza/veh), C12orf56 (ProbeSet 11735607_a_at) / Fold change (ACY-1035/veh), C12orf56 (ProbeSet 11735607_a_at) / Fold change (Aza/veh), FGFR1OP (ProbeSet 11751329_s_at) / Fold change (ACY-1035/veh), FGFR1OP (ProbeSet 11751329_s_at) / Fold change (Aza/veh), VPS36 (ProbeSet 11739960_a_at) / Fold change (ACY-1035/veh), VPS36 (ProbeSet 11739960_a_at) / RFU SYPL1 (11715823_x_at) / Fold change /veh SYPL1 (11715823_x_at) / RFU IGFBP7 (11715501_s_at) / Fold change /veh IGFBP7 (11715501_s_at) / RFU REEP3 (11722064_at) / Fold change /veh REEP3 (11722064_at) / RFU IGLL1 (11728026_x_at) / Fold change /veh IGLL1 (11728026_x_at): dose or concentration left out as unconfirmed
Settings: MV-4-11 cells, 48 hours

## Nc1ncn([C@@H]2O[C@H](CO)[C@@H](O)[C@H]2O)c(=O)n1 [azacitidine]
  Fold change /veh RGS16 (11720944_at): 1.54
